Results reported in PubChem BioAssay AID1963871 (Molecular Pharmacology Branch, DTP, NCI, 2024).

Tested on: KRAS-mutant PDC multicell tumor spheroid viability
Assay: Anticancer human tumor 521955-158-R2-J5-PDC patient-derived pancreatic carcinoma cell line growth inhibition [KRAS2]
Conditions: for IC50: curve of first compound; for viability, T/C: stronger effect = lower value
Outline: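 KRAS-mutant tumor cells were grown as spheroids with HUVEC endothelial cells and human MSCs as stroma. Targeted agents were tested alone and with KRAS pathway inhibitors. Doses started at or near clinical Cmax, or 10 microM, descending half-log.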

[1] = second compound 0.0316 µM, first compound 0.00316 µM
[2] = second compound 0.0316 µM, first compound 0.01 µM
[3] = second compound 0.0316 µM, first compound 0.0316 µM
[4] = second compound 0.0316 µM, first compound 0.1 µM
[5] = second compound 0.0316 µM, first compound 0.316 µM
[6] = second compound 0.0316 µM, first compound 1 µM
[7] = second compound 0.1 µM, first compound 0.00316 µM
[8] = second compound 0.1 µM, first compound 0.01 µM
[9] = second compound 0.1 µM, first compound 0.0316 µM
[10] = second compound 0.1 µM, first compound 0.1 µM
[11] = second compound 0.1 µM, first compound 0.316 µM
[12] = second compound 0.1 µM, first compound 1 µM
[13] = second compound 0.316 µM, first compound 0.00316 µM
[14] = second compound 0.316 µM, first compound 0.01 µM
[15] = second compound 0.316 µM, first compound 0.0316 µM
[16] = second compound 0.316 µM, first compound 0.1 µM
[17] = second compound 0.316 µM, first compound 0.316 µM
[18] = second compound 0.316 µM, first compound 1 µM
[19] = second compound 1 µM, first compound 0.00316 µM
[20] = second compound 1 µM, first compound 0.01 µM
[21] = second compound 1 µM, first compound 0.0316 µM
[22] = second compound 1 µM, first compound 0.1 µM
[23] = second compound 1 µM, first compound 0.316 µM
[24] = second compound 1 µM, first compound 1 µM
[25] = second compound 3.16 µM, first compound 0.00316 µM
[26] = second compound 3.16 µM, first compound 0.01 µM
[27] = second compound 3.16 µM, first compound 0.0316 µM
[28] = second compound 3.16 µM, first compound 0.1 µM
[29] = second compound 3.16 µM, first compound 0.316 µM
[30] = second compound 3.16 µM, first compound 1 µM
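Note: viability read after seven days of drug exposure.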

| SMILES | IC50 (second compound 0.0316 µM) | IC50 (second compound 0.1 µM) | IC50 (second compound 0.316 µM) | IC50 (second compound 1 µM) | IC50 (second compound 3.16 µM) | viability, T/C [1] | viability, T/C [2] | viability, T/C [3] | viability, T/C [4] | viability, T/C [5] | viability, T/C [6] | viability, T/C [7] | viability, T/C [9] | viability, T/C [10] | viability, T/C [15] | viability, T/C [16] | viability, T/C [21] | viability, T/C [22] | viability, T/C [27] | viability, T/C [28] | also measured |
| --- | --- | --- | --- | --- | --- | --- | --- | --- | --- | --- | --- | --- | --- | --- | --- | --- | --- | --- | --- | --- | --- |
| CCN1CCN(Cc2ccc(Nc3ncc(F)c(-c4cc(F)c5nc(C)n(C(C)C)c5c4)n3)nc2)CC1 + C=CC(=O)N1CCN(c2nc(OCC3CCCN3C)nc3c2CCN(c2cccc4cccc(C)c24)C3)CC1CC#N | > 1000 nM | > 1000 nM | > 1000 nM | > 1000 nM | < 3.16 nM | 93.5% | 107% | 91.8% | 85.9% | 110% | 83.6% | 102% | 87.5% | 95.8% | 90% | 72.3% | 80.6% | 82.5% | 16% | 11.1% | viability, T/C [8]: 94.2%; viability, T/C [11]: 106%; viability, T/C [12]: 84.8%; viability, T/C [13]: 85.3%; viability, T/C [14]: 106%; viability, T/C [17]: 104%; viability, T/C [18]: 90%; viability, T/C [19]: 89.3%; viability, T/C [20]: 78.3%; viability, T/C [23]: 84.6%; viability, T/C [24]: 81.9%; viability, T/C [25]: 19.2%; viability, T/C [26]: 19.5%; viability, T/C [29]: 4.58%; viability, T/C [30]: 0.34% |
| CCNC(=O)CC1N=C(c2ccc(Cl)cc2)c2cc(OC)ccc2-n2c(C)nnc21 (stereo not given) + C=CC(=O)N1CCN(c2nc(OCC3CCCN3C)nc3c2CCN(c2cccc4cccc(C)c24)C3)CC1CC#N | 395 nM | 340 nM | 302 nM | 291 nM | < 31.6 nM | – | – | 106% | 94.9% | 52.9% | 38% | – | 96.3% | 79.4% | 103% | 97.6% | 84.3% | 77% | 29.8% | 22% | viability, T/C (second compound 0.0316 µM, first compound 3.16 µM): 32.4%; viability, T/C (second compound 0.0316 µM, first compound 10 µM): 34.2%; viability, T/C [11]: 50.7%; viability, T/C [12]: 36%; viability, T/C (second compound 0.1 µM, first compound 3.16 µM): 34.3%; viability, T/C (second compound 0.1 µM, first compound 10 µM): 30.1%; viability, T/C [17]: 47.8%; viability, T/C [18]: 35.2%; viability, T/C (second compound 0.316 µM, first compound 3.16 µM): 31.6%; viability, T/C (second compound 0.316 µM, first compound 10 µM): 32.7%; viability, T/C [23]: 48.1%; viability, T/C [24]: 30.1%; viability, T/C (second compound 1 µM, first compound 3.16 µM): 28.1%; viability, T/C (second compound 1 µM, first compound 10 µM): 29.4%; viability, T/C [29]: 22.2%; viability, T/C [30]: 0.29%; viability, T/C (second compound 3.16 µM, first compound 3.16 µM): 14.3%; viability, T/C (second compound 3.16 µM, first compound 10 µM): 11.2% |
| Cn1ncnc1[C@H]1c2n[nH]c(=O)c3cc(F)cc(c23)N[C@@H]1c1ccc(F)cc1 + C=CC(=O)N1CCN(c2nc(OCC3CCCN3C)nc3c2CCN(c2cccc4cccc(C)c24)C3)CC1CC#N | > 100 nM | > 100 nM | > 100 nM | > 100 nM | < 0.316 nM | 103% | 81.4% | 91.6% | 82.5% | – | – | 86.9% | 81.3% | 77.6% | 75% | 66.5% | 67.4% | 62.7% | 9.22% | 8.81% | viability, T/C (second compound 0.0316 µM, first compound 0.000316 µM): 111%; viability, T/C (second compound 0.0316 µM, first compound 0.001 µM): 114%; viability, T/C (second compound 0.1 µM, first compound 0.000316 µM): 104%; viability, T/C (second compound 0.1 µM, first compound 0.001 µM): 96.9%; viability, T/C [8]: 85.5%; viability, T/C (second compound 0.316 µM, first compound 0.000316 µM): 99.6%; viability, T/C (second compound 0.316 µM, first compound 0.001 µM): 94.4%; viability, T/C [13]: 93.9%; viability, T/C [14]: 72.3%; viability, T/C (second compound 1 µM, first compound 0.000316 µM): 78.3%; viability, T/C (second compound 1 µM, first compound 0.001 µM): 82.7%; viability, T/C [19]: 78.5%; viability, T/C [20]: 69.2%; viability, T/C (second compound 3.16 µM, first compound 0.000316 µM): 15.8%; viability, T/C (second compound 3.16 µM, first compound 0.001 µM): 10.9%; viability, T/C [25]: 10.7%; viability, T/C [26]: 8.52% |
